Assay results reported in ChEMBL document CHEMBL2429761, “Discovery of ML314, a Brain Penetrant Non-Peptidic β-Arrestin Biased Agonist of the Neurotensin NTR1 Receptor” (ACS Med Chem Lett, 2013).
In brackets after ≈: the same amount, converted by molar mass.

Key:
[1] = biological target: T1, Neurotensin receptor type 1 (Homo sapiens, UniProt P30989); assay: Agonist activity at NTR1 (unknown origin) expressed in CHO cells assessed as stimulation of calcium flux; format: functional, cell-based
Liver = assay: Metabolic stability in mouse liver microsomes assessed as compound remaining at 1 to 10 uM after 1 hr by LC-MS/MS analysis; format: ADME, Microsome
[2] = biological target: T1, Neurotensin receptor type 1; assay: Agonist activity at NTR1 (unknown origin) expressed in CHOK1 cells by beta-arrestin assay relative to neurotensin (8 to 13); format: cell-based; details: CHO-K1
[3] = biological target: 5-hydroxytryptamine receptor 7 (Homo sapiens, UniProt P34969); assay: Binding affinity to 5-HT7 receptor (unknown origin)
Plasma [4] = assay: Plasma protein binding in human at 10 uM after 4 hrs by LC-MS/MS analysis; format: ADME, cell-free
Mus musculus = assay: Hepatic clearance in C57BL/6J mouse at 2 mg/kg, iv by LC-MS/MS analysis; format: ADME, organism-based, Liver; design: dose 2 mg/kg, route intravenous; details: in vivo
[5] = Kinetic solubility of the compound in pION buffer at 250 uM after 18 hrs at pH 5; format: physicochemical; details: read-out: Kinetic_solubility
[6] = Drug uptake in C57BL/6J mouse brain at 10 mg/kg, ip after 1 hr by LC-MS/MS analysis; format: ADME, organism-based; design: dose 10 mg/kg, route intraperitoneal; details: read-out: Drug uptake
[7] = Effective permeability of the compound at 50 uM after 30 mins at donor pH 6.2 and acceptor pH 7.4 by PAMPA; format: ADME; details: pH 6.2, 0.5 h
Mu-type opioid receptor = Mu-type opioid receptor (Homo sapiens, UniProt P35372); assay: Binding affinity to mu opioid receptor (unknown origin)
[8] = Effective permeability of the compound at 50 uM after 30 mins at donor pH 5 and acceptor pH 7.4 by PAMPA; format: ADME; details: pH 5, 0.5 h
[9] = biological target: T2, 5-hydroxytryptamine receptor 3A (Homo sapiens, UniProt P46098); assay: Binding affinity to 5-HT3 receptor (unknown origin)
T2 sequence (P46098 whole entry): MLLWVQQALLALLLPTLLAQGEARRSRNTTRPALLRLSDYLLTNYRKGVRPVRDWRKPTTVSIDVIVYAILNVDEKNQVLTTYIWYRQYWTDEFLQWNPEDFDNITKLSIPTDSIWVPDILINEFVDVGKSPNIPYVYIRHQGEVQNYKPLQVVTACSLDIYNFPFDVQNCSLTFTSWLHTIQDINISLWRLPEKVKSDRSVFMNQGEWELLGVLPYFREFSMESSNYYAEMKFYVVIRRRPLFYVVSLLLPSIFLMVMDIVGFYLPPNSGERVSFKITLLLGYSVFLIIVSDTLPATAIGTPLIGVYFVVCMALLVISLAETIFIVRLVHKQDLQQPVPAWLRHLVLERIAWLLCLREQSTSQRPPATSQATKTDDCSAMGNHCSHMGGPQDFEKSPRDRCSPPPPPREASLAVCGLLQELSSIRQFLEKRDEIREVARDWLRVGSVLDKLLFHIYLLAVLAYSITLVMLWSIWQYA

Plasma [10] = assay: Plasma protein binding in human at 1 uM after 4 hrs by LC-MS/MS analysis; format: ADME, cell-free
Hepatitis C virus = assay: Antiviral activity against Hepatitis C virus assessed as growth inhibition; format: functional, Hepacivirus hominis
Histamine H1 receptor = Histamine H1 receptor (Homo sapiens, UniProt P35367); assay: Binding affinity to histamine H1 receptor (unknown origin)
[11] = Kinetic solubility of the compound in pION buffer at 250 uM after 18 hrs at pH 7.4; format: physicochemical; details: read-out: Kinetic_solubility
[12] = Effective permeability of the compound at 50 uM after 30 mins at donor pH 7.4 and acceptor pH 7.4 by PAMPA; format: ADME; details: pH 7.4, 0.5 h
[13] = system: Mycobacterium tuberculosis; assay: Antibacterial activity against Mycobacterium tuberculosis H37Rv assessed as growth inhibition; format: functional
[14] = Hepatotoxicity in human Fa2N-4 cells after 24 hrs by luminescence assay; format: toxicity, cell-based; details: fa2n-4, 24 h, read-out: LC50 (the source's name)

T1 sequence (P30989 whole entry): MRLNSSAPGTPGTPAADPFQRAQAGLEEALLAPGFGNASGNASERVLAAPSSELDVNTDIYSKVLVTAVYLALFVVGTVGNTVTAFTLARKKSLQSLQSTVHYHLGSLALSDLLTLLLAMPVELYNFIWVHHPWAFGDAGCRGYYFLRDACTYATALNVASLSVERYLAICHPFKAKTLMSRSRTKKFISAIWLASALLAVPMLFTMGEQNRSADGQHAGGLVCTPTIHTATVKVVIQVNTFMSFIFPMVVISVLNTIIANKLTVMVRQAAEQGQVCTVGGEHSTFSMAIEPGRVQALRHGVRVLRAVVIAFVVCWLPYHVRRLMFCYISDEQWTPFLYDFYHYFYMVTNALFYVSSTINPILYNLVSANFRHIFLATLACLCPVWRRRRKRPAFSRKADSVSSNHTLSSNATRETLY
Chain of Mu-type opioid receptor (P35372 whole entry): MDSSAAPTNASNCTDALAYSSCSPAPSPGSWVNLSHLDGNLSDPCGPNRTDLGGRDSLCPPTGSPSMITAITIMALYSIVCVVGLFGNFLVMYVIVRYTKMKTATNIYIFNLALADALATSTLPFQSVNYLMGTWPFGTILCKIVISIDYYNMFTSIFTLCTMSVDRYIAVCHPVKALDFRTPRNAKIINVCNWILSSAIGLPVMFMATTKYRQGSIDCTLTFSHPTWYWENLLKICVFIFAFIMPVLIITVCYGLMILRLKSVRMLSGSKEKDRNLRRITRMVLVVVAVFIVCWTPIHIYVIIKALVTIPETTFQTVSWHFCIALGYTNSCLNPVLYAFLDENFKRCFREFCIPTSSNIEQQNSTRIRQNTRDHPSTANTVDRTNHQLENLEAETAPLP
Chain of 5-hydroxytryptamine receptor 7 (P34969 whole entry): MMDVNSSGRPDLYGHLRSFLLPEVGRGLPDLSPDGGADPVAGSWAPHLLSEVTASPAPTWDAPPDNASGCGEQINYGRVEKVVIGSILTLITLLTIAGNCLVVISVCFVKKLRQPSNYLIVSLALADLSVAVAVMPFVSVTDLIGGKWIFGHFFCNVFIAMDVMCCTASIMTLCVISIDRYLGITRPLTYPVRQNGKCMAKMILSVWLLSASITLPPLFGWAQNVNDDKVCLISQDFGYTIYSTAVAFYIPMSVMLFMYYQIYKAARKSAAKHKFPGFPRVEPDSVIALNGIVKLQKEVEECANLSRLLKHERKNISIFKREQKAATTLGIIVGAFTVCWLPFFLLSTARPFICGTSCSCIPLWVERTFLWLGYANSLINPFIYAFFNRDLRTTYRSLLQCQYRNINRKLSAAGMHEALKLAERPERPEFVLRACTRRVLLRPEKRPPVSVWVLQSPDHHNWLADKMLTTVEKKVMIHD
Chain of Histamine H1 receptor (P35367 whole entry): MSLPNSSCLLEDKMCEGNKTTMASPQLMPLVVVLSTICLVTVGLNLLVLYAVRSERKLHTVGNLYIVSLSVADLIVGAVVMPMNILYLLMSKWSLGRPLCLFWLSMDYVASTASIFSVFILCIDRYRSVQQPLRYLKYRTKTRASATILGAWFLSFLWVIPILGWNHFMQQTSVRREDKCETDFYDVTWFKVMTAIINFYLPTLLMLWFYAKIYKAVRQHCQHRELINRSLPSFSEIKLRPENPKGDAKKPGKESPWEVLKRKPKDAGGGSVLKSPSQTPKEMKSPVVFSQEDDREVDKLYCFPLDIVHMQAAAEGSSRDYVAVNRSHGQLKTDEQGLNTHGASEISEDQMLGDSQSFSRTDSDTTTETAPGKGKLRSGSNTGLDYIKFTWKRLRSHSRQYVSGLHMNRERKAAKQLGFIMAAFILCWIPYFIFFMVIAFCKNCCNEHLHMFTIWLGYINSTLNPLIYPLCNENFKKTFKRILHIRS

Question: Which EC50 [1] does the source give for `COc1cc2nc(C3CC3)nc(N3CCN(c4ccccc4OC)CC3)c2cc1OC` here?
Answer: > 80000 nM

Question: And the Stability (Liver)?
Answer: 0.2%

Question: And the Emax [2]?
Answer: 86.6%

Question: What about the Ki [3] of the same molecule?
Answer: 930 nM

Question: What about the PPB (Plasma [4]) of the same molecule?
Answer: 99.2%

Question: What about the CLH (Mus musculus) of the same molecule?
Answer: 81 mL/min/kg

Question: What about the solubility kinetic at 18 h, 250 µM [5] of the same molecule?
Answer: > 297 µM

Question: What about the concentration at 1 h [6] of the same molecule?
Answer: 924 ng/mL

Question: What about the Peff [7] of the same molecule?
Answer: 2140 ×10⁻⁶ cm/s

Question: What about the Ki (Mu-type opioid receptor) of the same molecule?
Answer: 1540 nM

Question: And the Peff [8]?
Answer: 1160 ×10⁻⁶ cm/s

Question: What about the Ki [9] of the same molecule?
Answer: 1000 nM

Question: What about the PPB (Plasma [10]) of the same molecule?
Answer: 99.5%

Question: And the GI (Hepatitis C virus)?
Answer: 3.16 µM

Question: What about the Ki (Histamine H1 receptor) of the same molecule?
Answer: 1420 nM

Question: And the solubility kinetic at 18 h, 250 µM [11]?
Answer: 1.2 µM (≈ 0.505 µg/mL)

Question: What about the Peff [12] of the same molecule?
Answer: 2090 ×10⁻⁶ cm/s

Question: And the GI [13]?
Answer: 3.9 µM

Question: And the CC50 [14]?
Answer: 29600 nM
